Source: DBAASP
In brackets after ≈: the same amount, converted by molar mass. Several values for one entry are separate records, joined by “and”; a condition that tells them apart may be missing. Identical values can stand only once.

How the values were obtained:
Experiment in all cases: ≥ marks a high value that may be exact or a test limit, other limits are often not marked, values filed in µg/mL are converted to µM
[1] = test system: Aspergillus niger IP218-53
[2] = test system: Saccharomyces cerevisiae IP118079
[3] = test system: Cryptococcus neoformans IP960-67
[4] = test system: Escherichia coli IP76-24
[5] = test system: Nocardia brasiliensis IP16-80
[6] = test system: Enterococcus faecalis IP103214
[7] = test system: Staphylococcus aureus IP76-25
[8] = test system: Aspergillus fumigatus IP1025-70
[9] = test system: Candida albicans IP884-65
[10] = test system: Aeromonas caviae IP67-16T
[11] = test system: Trichophyton simii IP1063-74
[12] = test system: Candida albicans
[13] = test system: Bacillus subtilis
[14] = test system: Salmonella typhimurium
[15] = test system: Pseudomonas putida
[16] = test system: Serratia sp.
[17] = test system: Escherichia coli
[18] = test system: Saccharomyces cerevisiae
[19] = test system: Streptococcus mutans
[20] = test system: Staphylococcus aureus
[21] = test system: Cryptococcus neoformans
[22] = test system: Stenotrophomonas maltophilia ATCC 13637
[23] = test system: Klebsiella aerogenes ATCC 49701
[24] = test system: Proteus mirabilis ATCC 12453
[25] = test system: Klebsiella pneumoniae ATCC 700603
[26] = test system: Acinetobacter baumannii
[27] = test system: Bacillus subtilis ATCC 21332
[28] = test system: Stenotrophomonas maltophilia
[29] = test system: Klebsiella oxytoca
[30] = test system: Streptococcus agalactiae
[31] = test system: Staphylococcus hominis
[32] = test system: Acinetobacter baumannii ATCC 19606
[33] = test system: Pseudomonas aeruginosa
[34] = test system: Staphylococcus epidermidis
[35] = test system: Enterococcus faecium
[36] = test system: Staphylococcus hominis ATCC 29970
[37] = test system: Raoultella ornithinolytica
[38] = test system: Staphylococcus epidermidis ATCC 12228
[39] = test system: Klebsiella aerogenes
[40] = test system: Proteus mirabilis
[41] = test system: Staphylococcus aureus ATCC 29213
[42] = test system: Enterobacter cloacae ATCC 13047
[43] = test system: Pseudomonas aeruginosa ATCC 15442
[44] = test system: Klebsiella oxytoca ATCC 43086
[45] = test system: Enterobacter cloacae
[46] = test system: Klebsiella pneumoniae
[47] = test system: Serratia marcescens ATCC 14041
[48] = test system: Raoultella ornithinolytica ATCC 31898
[49] = test system: Serratia marcescens
[50] = test system: Escherichia coli ATCC 25922
[51] = test system: Enterococcus faecium ATCC 29212
[52] = test system: Staphylococcus aureus FDA 209P
[53] = test system: Pseudomonas aeruginosa U-31
[54] = test system: Escherichia coli NIHJ JC-2
[55] = test system: Bacillus subtilis PCI 219

With CC[C@H](C)[C@H](NC(=O)CNC(=O)[C@H](CCCCN)NC(=O)[C@H](CC(C)C)NC(=O)[C@H](CCSC)NC(=O)[C@H](CC(N)=O)NC(=O)[C@H](CCCCN)NC(=O)[C@H](Cc1c[nH]c2ccccc12)NC(=O)[C@H](CC(C)C)NC(=O)[C@H](C)N)C(=O)NCC(=O)N[C@@H](CCCCN)C(N)=O [ALWKNMLKGIGK] as the compound, how does the MIC [1] read?
The MIC was ≥ 90 µM.

What about the MIC [2] of the same compound?
Its MIC is 20 µM (≈ 27.2 µg/mL).

What about the MIC [3] of the same compound?
The MIC was 6 µM (≈ 8.15 µg/mL).

And the MIC [4]?
The MIC was 6 µM (≈ 8.15 µg/mL).

What about the MIC [5] of the same compound?
Its MIC is ≥ 150 µM.

And the MIC [6]?
The MIC was 6 µM (≈ 8.15 µg/mL).

What about the MIC [7] of the same compound?
The MIC was ≥ 150 µM.

And the MIC [8]?
Its MIC is ≥ 90 µM.

What about the MIC [9] of the same compound?
The MIC was ≥ 40 µM.

What about the MIC [10] of the same compound?
The MIC was 6 µM (≈ 8.15 µg/mL).

And the MIC [11]?
The MIC was ≥ 70 µM.

How did the MIC [12] turn out when CC[C@H](C)[C@H](NC(=O)[C@H](CO)NC(=O)[C@H](CCCCN)NC(=O)[C@H](Cc1ccccc1)NC(=O)[C@H](CCCCN)NC(=O)[C@H](CCCCN)NC(=O)[C@H](CC(C)C)NC(=O)[C@@H]1CCCN1C(=O)[C@@H](NC(=O)[C@H](CCCCN)NC(=O)[C@@H](NC(=O)[C@@H](NC(=O)[C@H](C)N)C(C)C)C(C)C)C(C)C)C(=O)N[C@@H](CCCN=C(N)N)C(=O)N[C@@H](CCC(=O)O)C(=O)N[C@H](C(=O)N[C@@H](CCSC)C(=O)N[C@@H](CCCCN)C(=O)N[C@@H](CCC(=O)O)C(=O)N[C@@H](CCCCN)C(=O)NCC(=O)N[C@@H](CC(C)C)C(=O)N[C@@H](CC(C)C)C(=O)N[C@@H](CCC(=O)O)C(=O)N[C@@H](CC(=O)O)C(=O)N[C@@H](Cc1ccccc1)C(=O)O)[C@@H](C)O [AVVKVPLKKFKSIRETMKEKGLLEDF] was run?
Its MIC is 33 µM (≈ 100 µg/mL).

What about the MIC [13] of the same compound?
The MIC was 16.5 µM (≈ 50 µg/mL).

And the MIC [14]?
The MIC was 6.59 µM (≈ 20 µg/mL).

What about the MIC [15] of the same compound?
The MIC was ≥ 33 µM.

And the MIC [16]?
Its MIC is ≥ 65.9 µM.

What about the MIC [17] of the same compound?
The MIC was 16.5 µM (≈ 50 µg/mL).

And the MIC [18]?
The MIC was 3.95 µM (≈ 12 µg/mL).

And the MIC [19]?
The MIC was 16.5 µM (≈ 50 µg/mL).

And the MIC [20]?
Its MIC is 33 µM (≈ 100 µg/mL).

What about the MIC [21] of the same compound?
Its MIC is ≥ 33 µM.

How did the MIC [22] turn out when CC[C@H](C)[C@H](NC(=O)[C@@H](NC(=O)[C@@H]1CCCN1C(=O)[C@@H](NC(=O)[C@@H]1CCCN1C(=O)[C@H](CCCCN)NC(=O)[C@H](CCCCN)NC(=O)[C@H](CO)NC(=O)CN)C(C)C)[C@@H](C)CC)C(=O)N[C@@H](Cc1ccc(O)cc1)C(=O)N[C@H]1CSSC[C@@H](C(=O)N[C@@H](CCC(N)=O)C(=O)N[C@@H](CCCN=C(N)N)C(=O)N[C@@H](CCSC)C(=O)O)NC(=O)[C@H](CCCCN)NC(=O)CNC(=O)[C@H](CO)NC(=O)[C@H](CCCN=C(N)N)NC(=O)[C@H](CCCN=C(N)N)NC(=O)[C@H](CC(N)=O)NC1=O [GSKKPVPIIYCNRRSGKCQRM] was run?
The MIC was ≥ 52.9 µM.

What about the MIC [23] of the same compound?
Its MIC is 1.65 µM (≈ 4 µg/mL).

What about the MIC [24] of the same compound?
Its MIC is ≥ 52.9 µM.

And the MIC [25]?
Its MIC is 3.3 µM (≈ 7.99 µg/mL).

And the MIC [26]?
The MIC was ≥ 52.9 µM.

And the MIC [27]?
Its MIC is 3.3 µM (≈ 7.99 µg/mL).

And the MIC [28]?
Its MIC is ≥ 52.9 µM.

What about the MIC [29] of the same compound?
Its MIC is 3.3 µM (≈ 7.99 µg/mL).

And the MIC [30]?
The MIC was ≥ 52.9 µM.

What about the MIC [31] of the same compound?
Its MIC is ≥ 52.9 µM.

What about the MIC [32] of the same compound?
The MIC was > 52.9 µM.

And the MIC [33]?
The MIC was > 52.9 µM.

And the MIC [34]?
The MIC was ≥ 52.9 µM.

What about the MIC [35] of the same compound?
Its MIC is ≥ 37.4 µM.

And the MIC [36]?
The MIC was ≥ 52.9 µM.

What about the MIC [37] of the same compound?
The MIC was 3.3 µM (≈ 7.99 µg/mL).

What about the MIC [38] of the same compound?
The MIC was > 52.9 µM.

And the MIC [39]?
Its MIC is 1.65 µM (≈ 4 µg/mL).

What about the MIC [40] of the same compound?
Its MIC is ≥ 52.9 µM.

And the MIC [41]?
The MIC was > 52.9 µM.

And the MIC [17]?
The MIC was 2.34 µM (≈ 5.65 µg/mL).

What about the MIC [42] of the same compound?
Its MIC is 3.3 µM (≈ 7.99 µg/mL).

And the MIC [43]?
The MIC was ≥ 52.9 µM.

And the MIC [44]?
The MIC was 3.3 µM (≈ 7.99 µg/mL).

What about the MIC [45] of the same compound?
Its MIC is 4.67 µM (≈ 11.3 µg/mL).

And the MIC [46]?
Its MIC is 2.34 µM (≈ 5.65 µg/mL).

What about the MIC [47] of the same compound?
The MIC was ≥ 52.9 µM.

And the MIC [48]?
The MIC was 3.3 µM (≈ 7.99 µg/mL).

And the MIC [49]?
The MIC was ≥ 52.9 µM.

And the MIC [20]?
The MIC was > 52.9 µM.

And the MIC [50]?
The MIC was 2.34 µM and 1.6 µM.

And the MIC [51]?
Its MIC is 26.4 µM (≈ 63.9 µg/mL).

Which MIC [52] does the source give for CC(C)C[C@H](NC(=O)[C@H](CCCCN)NC(=O)[C@H](CCCCN)NC(=O)[C@H](CCCCN)NC(=O)[C@H](CC(C)C)NC(=O)[C@H](CCCCN)NC(=O)[C@H](CCCCN)NC(=O)[C@H](Cc1c[nH]c2ccccc12)NC(=O)[C@H](CCCCN)NC(=O)[C@H](CCCCN)NC(=O)[C@H](CCCCN)NC(=O)[C@H](CC(C)C)NC(=O)[C@H](CCCCN)NC(=O)[C@H](CCCCN)NC(=O)[C@H](CC(C)C)NC(=O)[C@H](CCCCN)NC(=O)[C@@H](N)CCCCN)C(=O)N[C@@H](CCCCN)C(=O)O [KKLKKLKKKWKKLKKKLK] here?
The MIC was ≥ 43 µM.

And the MIC [53]?
The MIC was ≥ 43 µM.

What about the MIC [54] of the same compound?
The MIC was ≥ 43 µM.

And the MIC [55]?
The MIC was ≥ 43 µM.
